Earlier results on one molecule are cited in patent publication US5990112A, “Inhibitors of metalloproteases pharmaceutical compositions comprising same and methods of their use” (Affymax Technologies N.V., priority 1996, dated 1999).

What is called IC50 is the concentration at which inhibition is half-maximal.

The target in series [1] is human rheumatoid synovial collagenase.
In series [2] the target is rabbit bone proteoglycanase. The following applies: Delaisse et al. 1985.

Regarding `CNC(=O)[C@H](Cc1ccc(OC)cc1)NC(=O)[C@H](CC(C)C)NC(CCNC(=O)OCc1ccccc1)C(=O)O` (stereo partly drawn) [N-[3-(benzyloxy-carbonyl)amino-1-carboxy-n-propyl]-L-leucyl-O-methyl-L-tyrosine, N-methylamide], the values for the IC50 in series [1] and in series [2] were less than 8000 nM and 500 nM, respectively.
